Source: the supplement of paper PMC11451515

Experiments:
Details in all cases: 48 h
SEM cells [1] = assay: AUC of viability dose-response curve (% viability x log10 dose units); higher = less sensitive
Outline: (§1)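 Medium-adapted leukemia cells in 1536-well plates, at 500 or 1000 cells/well, were incubated for 48 h at 37°C with library compounds in DMSO at 11 threefold doses from 47 μM to 0.79 nM. CellTiter-Glo One luminescence normalised per plate to DMSO and cell-free wells was fitted with a four-parameter log-logistic model over log10 doses. Area under the curve was integrated from this fit by trapezoidal rule, with curves beyond full viability scaled and failed quality-control curves removed.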

P12-Ichikawa [2] = assay: as above
Outline: as §1

NOMO1 [3] = assay: as above
Outline: as §1

SEM cells [4] = assay: cell viability relative to DMSO control; higher = less cytotoxic
Outline: (§2)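 Leukemia cells (NOMO1 or SEM, 500 cells/well; P12-Ichikawa, 1000 cells/well) were seeded in 5 μl in 1536-well plates after at least four passages of adaptation to each medium. They received library compounds in DMSO by pin dosing, 11 threefold points from 47 μM to 0.79 nM. Luminescence with CellTiter-Glo One was read after 48 h at 37°C. Viability is stated per plate relative to DMSO wells, with cell-free wells as background.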

P12-Ichikawa [5] = assay: as above
Outline: as §2

NOMO1 [6] = assay: as above
Outline: as §2

NC(=O)c1ccc(N(C(N)=O)c2c(F)cccc2F)nc1-c1ccc(F)cc1F
AUC of viability dose-response curve
Details	NOMO1 [3]	P12-Ichikawa [2]	SEM cells [1]
HPLM + 10% dialyzed FBS	472	476	412
RPMI 5 mM glucose + 10% FBS	447	468	454
RPMI 5 mM glucose + 10% dialyzed FBS	429	449	411

cell viability [%]
Details	NOMO1 [6]	P12-Ichikawa [5]	SEM cells [4]
HPLM + 10% dialyzed FBS, 0.000781 µM	90	101	85.2
HPLM + 10% dialyzed FBS, 0.00234 µM	103	101	81.2
HPLM + 10% dialyzed FBS, 0.00702 µM	113	105	88.2
HPLM + 10% dialyzed FBS, 0.0211 µM	104	101	79.5
HPLM + 10% dialyzed FBS, 0.0632 µM	115	107	89.5
HPLM + 10% dialyzed FBS, 0.19 µM	115	102	94
HPLM + 10% dialyzed FBS, 0.569 µM	95.3	106	106
HPLM + 10% dialyzed FBS, 1.71 µM	114	101	99.7
HPLM + 10% dialyzed FBS, 5.12 µM	99.6	108	88.5
HPLM + 10% dialyzed FBS, 15.4 µM	94.8	95.3	51.7
HPLM + 10% dialyzed FBS, 46.1 µM	111	104	77.5
RPMI 5 mM glucose + 10% FBS, 0.000781 µM	80.4	101	116
RPMI 5 mM glucose + 10% FBS, 0.00234 µM	86.9	97.1	88.8
RPMI 5 mM glucose + 10% FBS, 0.00702 µM	95.4	100	80.1
RPMI 5 mM glucose + 10% FBS, 0.0211 µM	100	98.7	97.4
RPMI 5 mM glucose + 10% FBS, 0.0632 µM	94.3	108	119
RPMI 5 mM glucose + 10% FBS, 0.19 µM	93.8	94.7	95
RPMI 5 mM glucose + 10% FBS, 0.569 µM	95.2	109	89
RPMI 5 mM glucose + 10% FBS, 1.71 µM	105	95.6	104
RPMI 5 mM glucose + 10% FBS, 5.12 µM	101	98.5	102
RPMI 5 mM glucose + 10% FBS, 15.4 µM	84.9	88.7	52.3
RPMI 5 mM glucose + 10% FBS, 46.1 µM	88	96.3	94.9
RPMI 5 mM glucose + 10% dialyzed FBS, 0.000781 µM	78.2	94.9	87.6
RPMI 5 mM glucose + 10% dialyzed FBS, 0.00234 µM	92.4	96.1	86.7
RPMI 5 mM glucose + 10% dialyzed FBS, 0.00702 µM	91.1	99	89.4
RPMI 5 mM glucose + 10% dialyzed FBS, 0.0211 µM	99.1	102	94.7
RPMI 5 mM glucose + 10% dialyzed FBS, 0.0632 µM	85.4	100	93.2
RPMI 5 mM glucose + 10% dialyzed FBS, 0.19 µM	91.6	92.1	94.9
RPMI 5 mM glucose + 10% dialyzed FBS, 0.569 µM	95	91	88.3
RPMI 5 mM glucose + 10% dialyzed FBS, 1.71 µM	87.4	92.7	100
RPMI 5 mM glucose + 10% dialyzed FBS, 5.12 µM	93.6	91.2	92.1
RPMI 5 mM glucose + 10% dialyzed FBS, 15.4 µM	80.4	87.5	41.1
RPMI 5 mM glucose + 10% dialyzed FBS, 46.1 µM	94.3	88.6	66.8
